SMILES strings stand for the structures. Where a name gives a salt, the structure may show the parent alone.

The first test addresses T1, human recombinant P2X7 receptors (Homo sapiens, UniProt Q99572).
T1 construct: expressed in transfected cells
T1 sequence (Q99572 1-595): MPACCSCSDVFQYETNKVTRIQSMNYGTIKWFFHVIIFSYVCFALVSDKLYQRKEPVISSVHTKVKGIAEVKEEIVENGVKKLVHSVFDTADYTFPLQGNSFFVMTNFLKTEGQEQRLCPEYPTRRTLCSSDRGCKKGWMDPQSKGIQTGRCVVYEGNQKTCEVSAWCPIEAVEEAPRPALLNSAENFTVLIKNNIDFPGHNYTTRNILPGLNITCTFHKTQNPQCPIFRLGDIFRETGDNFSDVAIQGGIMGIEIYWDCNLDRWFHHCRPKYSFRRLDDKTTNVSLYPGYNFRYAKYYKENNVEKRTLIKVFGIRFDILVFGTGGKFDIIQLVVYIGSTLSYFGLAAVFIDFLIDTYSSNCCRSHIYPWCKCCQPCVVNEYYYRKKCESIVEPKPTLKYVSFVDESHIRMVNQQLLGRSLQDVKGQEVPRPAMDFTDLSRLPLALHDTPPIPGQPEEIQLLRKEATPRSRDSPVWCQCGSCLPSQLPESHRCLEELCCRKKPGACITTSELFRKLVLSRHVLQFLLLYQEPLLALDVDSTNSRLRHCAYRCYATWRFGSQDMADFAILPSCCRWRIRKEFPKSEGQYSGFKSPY
The test is described as follows: Ethidium Accumulation Assay 1. The format is cell-based. The settings on record: HEK293 cells stably expressing human recombinant P2X7; 1 mM ATP; ethidium 100 μM; read-out: Assay 1 (antagonist pIC50 for blocking ATP responses, ethidium accumulation) (converted). How it is done:
Studies were performed using NaCl assay buffer of the following composition: 140 mM NaCl, 10 mM HEPES [4-(2-hydroxyethyl)-1-piperazine-1-ethanesulfonic acid], 5 mM N-methyl-D-glucamine, 5.6 mM KCl, 10 mM D-glucose, 0.5 mM CaCl2 (pH 7.4).
Human Embryonic Kidney (HEK) 293 cells, stably expressing human recombinant P2X7 receptors, were grown in poly-D-lysine pretreated 96 well plates for 18-24 hours. […] The cells were washed twice with 350 μl of the assay buffer, before addition of 50 μl of the assay buffer containing the putative P2X7 receptor antagonist compound. (A small amount of dimethyl sulfoxide, for initially dissolving the compound, is optionally used and present in this […] test compound sample.) The cells were then incubated at room temperature (19-21° C.) for 30 min before addition of ATP and ethidium (100 μM final assay concentration). The ATP concentration was chosen to be close to the EC80 for the receptor type and was 1 mM for studies on the human P2X7 receptor. Incubations were continued for 8 or 16 min and were terminated by addition of 25 μl of 1.3M sucrose containing 4 mM of the P2X7 receptor antagonist Reactive Black 5 (Aldrich). […] Antagonist pIC50 values for blocking ATP responses were determined using iterative curve fitting techniques.
`O=C(c1cccc(C(F)(F)F)c1Cl)N1CCn2ccnc2C1` [Example 1, 7-{[2-Chloro-3-(trifluoromethyl)phenyl]carbonyl}-5,6,7,8-tetrahydroimidazo[1,2-a]pyrazine]: the IC50 was under 100 nM.

Consider `O=C(c1cccc(C(F)(F)F)c1Cl)N1CCn2cc(C(F)(F)F)nc2C1` [Example 2, 7-{[2-Chloro-3-(trifluoromethyl)phenyl]carbonyl}-2-(trifluoromethyl)-5,6,7,8-tetrahydroimidazo[1,2-a]pyrazine], for which the IC50 was under 100 nM.

Consider `Cc1cnc2n1CCN(C(=O)c1cccc(C(F)(F)F)c1Cl)C2` [Example 27, 7-{[2-Chloro-3-(trifluoromethyl)phenyl]carbonyl}-3-methyl-5,6,7,8-tetrahydroimidazo[1,2-a]pyrazine hydrochloride], for which the IC50 was under 100 nM.

Consider `O=C(c1cccc(C(F)(F)F)c1Cl)N1CCn2c(nc(Cl)c2Br)C1` [Example 33, 3-Bromo-2-chloro-7-{[2-chloro-3-(trifluoromethyl)phenyl]carbonyl}-5,6,7,8-tetrahydroimidazo[1,2-a]pyrazine], for which the IC50 is under 10 nM.

For `O=C(c1cccc(C(F)(F)F)c1Cl)N1CCn2c(nc(Br)c2-c2ccc(F)cc2)C1` [Example 34, 2-Bromo-7-{[2-chloro-3-(trifluoromethyl)phenyl]carbonyl}-3-(4-fluorophenyl)-5,6,7,8-tetrahydroimidazo[1,2-a]pyrazine], the IC50 was under 100 nM.

Regarding `O=C(c1cccc(C(F)(F)F)c1Cl)N1CCn2c(nc(C(F)(F)F)c2-c2ccc(F)cc2)C1` [Example 35, 7-{[2-chloro-3-(trifluoromethyl)phenyl]carbonyl}-3-(4-fluorophenyl)-2-(trifluoromethyl)-5,6,7,8-tetrahydroimidazo[1,2-a]pyrazine], the IC50 is under 100 nM.

Turning to `O=C(c1ccc(Cl)cc1Cl)N1CCn2c(nc(C(F)(F)F)c2-c2ccc(F)cc2)C1` [Example 36, 7-[(2,4-dichlorophenyl)carbonyl]-3-(4-fluorophenyl)-2-(trifluoromethyl)-5,6,7,8-tetrahydroimidazo[1,2-a]pyrazine], the IC50 is under 501 nM.

As for `O=C(c1ccc(F)cc1Cl)N1CCn2c(-c3cnccn3)cnc2C1` [Example 37, 7-[(2-chloro-4-fluorophenyl)carbonyl]-3-(2-pyrazinyl)-5,6,7,8-tetrahydroimidazo[1,2-a]pyrazine], the IC50 is under 10 nM.

Take `O=C(c1cccc(C(F)(F)F)c1Cl)N1CCn2c(-c3cnccn3)cnc2C1` [Example 38, 7-{[2-chloro-3-(trifluoromethyl)phenyl]carbonyl}-3-(2-pyrazinyl)-5,6,7,8-tetrahydroimidazo[1,2-a]pyrazine]: the IC50 was under 10 nM.

Consider `O=C(c1cccc(C(F)(F)F)c1Cl)N1CCn2c(-c3nccs3)cnc2C1` [Example 39, 7-{[2-chloro-3-(trifluoromethyl)phenyl]carbonyl}-3-(1,3-thiazol-2-yl)-5,6,7,8-tetrahydroimidazo[1,2-a]pyrazine], for which the IC50 was under 10 nM.

As to `O=C(c1cccc(C(F)(F)F)c1Cl)N1CCn2c(-c3ncccn3)cnc2C1` [Example 41, 7-{[2-chloro-3-(trifluoromethyl)phenyl]carbonyl}-3-(2-pyrimidinyl)-5,6,7,8-tetrahydroimidazo[1,2-a]pyrazine], the IC50 is under 10 nM.

On to `O=C(c1cccc(C(F)(F)F)c1Cl)N1CCn2c(-c3cscn3)cnc2C1` [Example 42, 7-{[2-chloro-3-(trifluoromethyl)phenyl]carbonyl}-3-(1,3-thiazol-4-yl)-5,6,7,8-tetrahydroimidazo[1,2-a]pyrazine], for which the IC50 is under 10 nM.

On to `O=C(c1cccc(C(F)(F)F)c1Cl)N1CCn2c(Cl)cnc2C1` [Example 43, 3-chloro-7-{[2-chloro-3-(trifluoromethyl)phenyl]carbonyl}-5,6,7,8-tetrahydroimidazo[1,2-a]pyrazine], for which the IC50 was under 100 nM.

`O=C(c1ccc(Cl)cc1Cl)N1CCn2c(Cl)cnc2C1` [Example 44, 3-chloro-7-[(2,4-dichlorophenyl)carbonyl]-5,6,7,8-tetrahydroimidazo[1,2-a]pyrazine]: the IC50 is under 501 nM.

As to `O=C(c1cccc(C(F)(F)F)c1Cl)N1CCn2c(nc(Cl)c2Cl)C1` [Example 45, 2,3-dichloro-7-{[2-chloro-3-(trifluoromethyl)phenyl]carbonyl}-5,6,7,8-tetrahydroimidazo[1,2-a]pyrazine], the IC50 is under 10 nM.

The next test addresses T1, human recombinant P2X7 receptors. In words: Ethidium Accumulation Assay 2. The settings on record: HEK293 cells stably expressing human recombinant P2X7; ATP solution with ethidium bromide; 16 min incubation; read-out: Assay 2 (antagonist pIC50 for blocking ATP responses, ethidium accumulation) (converted). It counts as cell-based. How it is done:
Human Embryonic Kidney (HEK) 293 cells, stably expressing human recombinant P2X7 receptors, were grown in poly-D-lysine pretreated 96 well plates for 24 hours at 37° C.
The cells were washed with assay buffer (100 μL), before addition of 25 μL of assay buffer and then 25 ul of assay buffer containing the putative P2X7 receptor antagonist compound. The cells were then incubated at room temperature (19-21° C.) for 30 min before addition of ATP solution (50 μM). […] Antagonist pIC50 values for blocking ATP responses were determined using iterative curve fitting techniques.
As for `O=C(c1cccc(C(F)(F)F)c1Cl)N1CCn2ccnc2C1` [Example 1, 7-{[2-Chloro-3-(trifluoromethyl)phenyl]carbonyl}-5,6,7,8-tetrahydroimidazo[1,2-a]pyrazine], the IC50 was under 100 nM.

With `O=C(c1cccc(C(F)(F)F)c1Cl)N1CCn2cc(C(F)(F)F)nc2C1` [Example 2, 7-{[2-Chloro-3-(trifluoromethyl)phenyl]carbonyl}-2-(trifluoromethyl)-5,6,7,8-tetrahydroimidazo[1,2-a]pyrazine], the IC50 was under 100 nM.

On to `Cc1cnc2n1CCN(C(=O)c1cccc(C(F)(F)F)c1Cl)C2` [Example 27, 7-{[2-Chloro-3-(trifluoromethyl)phenyl]carbonyl}-3-methyl-5,6,7,8-tetrahydroimidazo[1,2-a]pyrazine hydrochloride], for which the IC50 is under 100 nM.

Values taken from patent publication US8513248B2, “5,6,7,8-tetrahydroimidazo[1,2-A]pyrazine derivatives as P2X7 modulators” (Glaxo Group Limited, priority 2009, dated 2013).
